Assay results reported in US9452225B2, “GLP-1 prodrugs” (Novo Nordisk A/S, priority 2012, dated 2016).

Tests used:
[1] = Prodrug half-life in vitro, buffer method; assay type: physicochemical; settings: 25 mM phosphate buffer pH 7.4, 37° C., 1.0 mg/mL; UPLC_A, or UPLC_B for compounds marked *; read-out: T½ in buffer (converted)
Method: (§1) The purpose of this example is to test the in vitro half-lives (T½) of the GLP-1 prodrugs of the invention, in comparison to conceptually different prodrugs. In what follows two in vitro methods are described, viz. a method conducted in buffer, and a method conducted in plasma.
Buffer: 25 mM Phosphate (Ionic strength: 154 mM, pH 7.4 at 37° C.)
NaH2PO4.2H2O (1.95 g, 12.5 mmol) and NaCl (2.61 g, 44.7 mmol) were dissolved in millipore water (approximately 450 mL) and adjusted to pH=7.44 at approximately 20° C. with concentrated NaOH and 1 M NaOH. Water was added to 500.00 mL.
The compound to be tested was dissolved in buffer to a concentration of 1.0 mg/mL and incubated at 37° C. Samples were taken at adequate intervals and the % parent drug compared to prodrug formed as function of time was evaluated by the UPLC method as referred to in Table 1 by comparing the areas under the curves for the two corresponding peaks. These UPLC methods are described in the general experimental section above (UPLC_A, and UPLC_B).
(§2) The half life of the prodrug (T½) was calculated from the slope of a linear fit to the curve of ln(% prodrug (Y)) as a function of time (t), as follows: Y=÷αt+k Math. 1 T½=ln(2)/α Math. 2 Plasma Method Buffer: 200 mM Phosphate, pH 7.4 at 37° C.
The resulting half-lives are set out in Table 1 below. For comparison, the T½ in buffer of native GLP-1(7-37) (His7 variant of SEQ ID NO: 1) was 13 minutes (0.2 hours).

[2] = Prodrug half-life in vitro, plasma method (minipig heparin plasma); assay type: in vitro ADME; settings: minipig heparin plasma 800 μL + 200 μL 200 mM phosphate pH 7.4, 37° C.; UPLC_A, or UPLC_B for compounds marked *; read-out: T½ in plasma (converted)
Method: as §1, §2
NaH2PO4.2H2O (15.61 g, 100 mmol) was dissolved in milliQ water (approximately 450 mL) and adjusted to pH=7.44 at approximately 20° C. with concentrated NaOH (aq) and 1 M NaOH (aq). Water was added to 500.00 mL.
Serum: Minipig Serum, Heparin-Plasma
Fresh blood was tapped from minipig into 9 mL LH lithium heparin Vacuette tubes from Greiner bio-one (catalogue number 455084). After cooling on ice it was centrifuged (10 min, 4° C., 3000 rpm/1942G) and the supernatant isolated and kept at −18° C. before use.
100 nmol of the compound to be tested was dissolved in 200 μL buffer, added to 800 μL plasma (centrifuged), and incubated at 37° C. Samples (50 μL) were drawn at appropriate intervals into 150 μL absolute EtOH. After a short stirring the sample was centrifuged and the supernatant transferred to the UPLC vial (10 μL injection).
The % parent drug compared to prodrug formed as a function of time was evaluated by UPLC, and the half-life calculated, both in the same way as described above under the Buffer method.

[3] = Pharmacokinetic study in minipigs after i.v. administration; assay type: in vivo, Göttingen minipigs; settings: iv, minipig
Method: The purpose of this study is to determine the pharmacokinetic (PK) profile in vivo of a prodrug of the invention (Example 4) and the corresponding parent drug (Example B2.2) after i.v. administration to minipigs, e.g. the prolongation of their time in the body and thereby their time of action. This is done in a PK study, where the terminal half-life of the compound in question is determined. By terminal half-life is generally meant the period of time it takes to halve a certain plasma concentration, measured after the initial distribution phase.
Threefemale Göttingen minipigs, obtained from Ellegaard Göttingen Minipigs (Dalmose, Denmark) approximately 6-8 months of age and weighing approximately 16-21 kg (prodrug pig 16.8 kg, drug pigs 21.3 and 21.1 kg), were used in the studies. The minipigs were housed individually and fed restrictedly once daily with SDS minipig diet (Special Diets Services, Essex, UK). […]
The prodrug of Example 4 and the corresponding drug of Example B2.2 were dissolved in 50 mM sodium phosphate, 145 mM sodium chloride, 0.05% polysorbate 80, pH 7.4 to a suitable concentration (for example, 169.6 nmol/ml for the prodrug). […] Individual plasma concentration-time profiles were analyzed by a non-compartmental model in WinNonlin v. […] Also, the resulting terminal half-lives (harmonic mean/h) were determined, if possible. […]

human GLP-1 receptor = molecular target: T1, human GLP-1 receptor (Homo sapiens, UniProt P43220); experiment: In vitro potency, AlphaScreen cAMP assay on membranes; assay type: biochemical; settings: cAMP formation, membranes of BHK467-12A cells
T1 construct: expressed in transfected cells; host or cells: BHK cells, clone FCW467-12A (parent line BHKTS13), membranes
T1 sequence (P43220 24-463): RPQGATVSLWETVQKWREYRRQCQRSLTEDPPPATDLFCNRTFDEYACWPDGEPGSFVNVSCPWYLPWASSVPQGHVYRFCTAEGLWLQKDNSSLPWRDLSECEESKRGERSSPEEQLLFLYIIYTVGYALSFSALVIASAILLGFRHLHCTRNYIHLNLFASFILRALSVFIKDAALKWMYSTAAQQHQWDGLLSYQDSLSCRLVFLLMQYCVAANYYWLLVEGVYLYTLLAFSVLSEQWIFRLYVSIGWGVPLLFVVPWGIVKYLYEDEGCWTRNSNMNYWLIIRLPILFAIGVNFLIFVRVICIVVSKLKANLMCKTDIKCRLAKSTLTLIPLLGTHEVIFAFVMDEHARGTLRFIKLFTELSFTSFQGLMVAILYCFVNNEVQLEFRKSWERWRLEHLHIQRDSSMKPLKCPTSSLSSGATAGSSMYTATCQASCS
Method: The purpose of this example is to test the activity, or potency, in vitro of, for example, the GLP-1 parent drugs of the prodrugs of the invention.
Purified plasma membranes from a stable transfected cell line, BHK467-12A (tk-ts13), expressing the human GLP-1 receptor were stimulated with the GLP-1 drug in question, and the potency of cAMP production was measured using the AlphaScreen™ cAMP Assay Kit from Perkin Elmer Life Sciences. The basic principle of The AlphaScreen Assay is a competition between endogenous cAMP and exogenously added biotin-cAMP. The capture of cAMP is achieved by using a specific antibody conjugated to acceptor beads.
A stable transfected cell line and a high expressing clone were selected for screening. The cells were grown at 5% CO2 in DMEM, 10% FCS, 1% Pen/Strep (Penicillin/Streptomycin) and preferably 0.5 (alternatively 1.0 mg/ml) of the selection marker G418.
Cells at approximate 80% confluence were washed twice with PBS and harvested with Versene (aqueous solution of the tetrasodium salt of ethylenediaminetetraacetic acid), centrifuged 5 min at 1000 rpm and the supernatant removed. The additional steps were all made on ice. The cell pellet was homogenised by the Ultrathurax for 20-30 s in 10 ml of Buffer 1 (20 mM Na-HEPES, 10 mM EDTA, pH=7.4), centrifuged 15 min at 20,000 rpm and the pellet resuspended in 10 ml of Buffer 2 (20 mM Na-HEPES, 0.1 mM EDTA, pH=7.4). The suspension was homogenised for 20-30 s and centrifuged 15 min at 20,000 rpm. Suspension in Buffer 2, homogenisation and centrifugation was repeated once and the membranes were resuspended in Buffer 2. The protein concentration was determined and the membranes stored at −80° C. until use.
The assay was performed in flat-bottom 96-well plates (Costar cat. no: 3693). The final volume per well was 50 μl.
AlphaScreen cAMP Assay Kit from Perkin Elmer Life Sciences (cat. No: 6760625M); containing Anti-cAMP Acceptor beads (10 U/μl), Streptavidin Donor beads (10 U/μl) and Biotinylated-cAMP (133 U/μl). […]

SMILES | half-life [1] [h] | half-life [2] [h] | half-life ([3]; in vivo, prodrug given i.v. 8 nmol/kg, half-life of the released parent drug, estimated from the bell-shaped curve, read-out: apparent terminal half-life of corresponding drug (estimated) (converted)) [h] | EC50 (human GLP-1 receptor) [pM] | half-life ([3]; female, Göttingen, plasma, parent drug given i.v. 3 nmol/kg, read-out: Terminal half-life (harmonic mean/h) (converted)) [h]
CC[C@H](C)[C@H](NC)C(=O)N[C@H](C(=O)O[C@@H](Cc1c[nH]cn1)C(=O)N[C@@H](C)C(=O)N[C@@H](CCC(=O)O)C(=O)NCC(=O)N[C@H](C(=O)N[C@@H](Cc1ccccc1)C(=O)N[C@H](C(=O)N[C@@H](CO)C(=O)N[C@@H](CC(=O)O)C(=O)N[C@H](C(=O)N[C@@H](CO)C(=O)N[C@@H](CO)C(=O)N[C@@H](Cc1ccc(O)cc1)C(=O)N[C@@H](CC(C)C)C(=O)N[C@@H](CCC(=O)O)C(=O)NCC(=O)N[C@@H](CCC(N)=O)C(=O)N[C@@H](C)C(=O)N[C@@H](C)C(=O)N[C@@H](CCCCNC(=O)COCCOCCNC(=O)COCCOCCNC(=O)CC[C@H](NC(=O)CCCCCCCCCOc1ccc(C(=O)O)cc1)C(=O)O)C(=O)N[C@@H](CCC(=O)O)C(=O)N[C@@H](Cc1ccccc1)C(=O)N[C@H](C(=O)N[C@@H](C)C(=O)N[C@@H](Cc1c[nH]c2ccccc12)C(=O)N[C@@H](CC(C)C)C(=O)N[C@H](C(=O)N[C@@H](CCCNC(=N)N)C(=O)NCC(=O)N[C@@H](CCCNC(=N)N)C(=O)N[C@@H](CCCCNC(=O)COCCOCCNC(=O)COCCOCCNC(=O)CC[C@H](NC(=O)CCCCCCCCCOc1ccc(C(=O)O)cc1)C(=O)O)C(=O)O)C(C)C)[C@@H](C)CC)C(C)C)[C@@H](C)O)[C@@H](C)O)C(C)C [Example 4] | 58.9 | 27.9 | 68 | – | –
CC[C@H](C)[C@H](NC(=O)[C@H](Cc1ccccc1)NC(=O)[C@H](CCC(=O)O)NC(=O)[C@H](CCCCNC(=O)COCCOCCNC(=O)COCCOCCNC(=O)CC[C@H](NC(=O)CCCCCCCCCOc1ccc(C(=O)O)cc1)C(=O)O)NC(=O)[C@H](C)NC(=O)[C@H](C)NC(=O)[C@H](CCC(N)=O)NC(=O)CNC(=O)[C@H](CCC(=O)O)NC(=O)[C@H](CC(C)C)NC(=O)[C@H](Cc1ccc(O)cc1)NC(=O)[C@H](CO)NC(=O)[C@H](CO)NC(=O)[C@@H](NC(=O)[C@H](CC(=O)O)NC(=O)[C@H](CO)NC(=O)[C@@H](NC(=O)[C@H](Cc1ccccc1)NC(=O)[C@@H](NC(=O)CNC(=O)[C@H](CCC(=O)O)NC(=O)[C@H](C)NC(=O)[C@@H](O)Cc1c[nH]cn1)[C@@H](C)O)[C@@H](C)O)C(C)C)C(=O)N[C@@H](C)C(=O)N[C@@H](Cc1c[nH]c2ccccc12)C(=O)N[C@@H](CC(C)C)C(=O)N[C@H](C(=O)N[C@@H](CCCNC(=N)N)C(=O)NCC(=O)N[C@@H](CCCNC(=N)N)C(=O)N[C@@H](CCCCNC(=O)COCCOCCNC(=O)COCCOCCNC(=O)CC[C@H](NC(=O)CCCCCCCCCOc1ccc(C(=O)O)cc1)C(=O)O)C(=O)O)C(C)C [Example B2.2] | – | – | – | 460 | 37
